Blank lines part the entries; values can stand above or below the compound they belong to.
Legend:
Test in all cases: MTT test of cell viability, 72 h treatment
Assay type in all cases: cell-based
[1] = test system: U87 human glioblastoma cell line; details: for IC50: MTT, 72 h; for Selectivity Index: ratio IC50 MRC-5 (4,000 cells per well) / IC50 U87
Method: (§1) The MTT test was used to evaluate the effect of the compounds on cell viability. The test relies on the reduction of tetrazolium salt (MTT) to formazan, which is catalyzed by the mitochondrial enzyme succinate dehydrogenase. The activity of succinate dehydrogenase, which is indicative of mitochondrial respiration, is taken as an indirect measure of the metabolic activity of the cell, and thus its viability. The MTT-formazan produced is a purple-colored product, whose absorbance is measured at a wavelength of 570 nm. • a) To determine the inhibition of cell growth by SC, different cell lines were exposed to increasing concentrations of SC (5, 10, 25, 50, and 100 μM). The cells were seeded in 96-well microtiter plates at a density of 2,000 cells per well for NCI-H460, NCI-H460/R, DLD1 and DLD1-TxR, and 4,000 cells per well for MRC-5, U87, U87-TxR, and U251 in 100 μL of the appropriate medium. Control cells that received no treatment were also seeded at the same time. After 24 h for adaptation, the cells were treated with various concentrations of SC. After 72 h of treatment, 0.2 mg/ml MTT was added to each well in the appropriate cell culture medium. After 4 h of incubation at 37° C. with 5% CO2, the medium was removed, and 100 μL of DMSO were added to each well, to dissolve the formazan. The absorbance of the samples was measured at 570 nm using a Multiskan Sky Microplate spectrophotometer (ThermoFisher Scientific, USA). The results were analyzed using GraphPad Prism 8.0.2. software, and the IC50 values were determined by non-linear regression. • b) To test the interaction between SC and DOX in terms of cytotoxicity in different cell lines, cells were seeded in 96-well microtiter plates at a density of 2,000 cells per well for NCI-H460, NCI-H460/R, DLD1 and DLD1-TxR, and 4,000 cells per well for MRC-5, U87, U87-TxR, and U251 in 100 μl of the appropriate medium. SC (10 and 20 μM) was combined with increasing concentrations of DOX (20, 50, 100, 200, and 500 nM). The cells were treated with the simultaneous combinations for 72 h. After this period, 0.2 mg/ml MTT was added to each well, followed by 4 hours of incubation at 37° C. with 5% CO2. The medium was then removed, and DMSO was added to each well to dissolve the formazan.
(§2) The analysis was carried out using GraphPad Prism software version 8.0.2 to determine the nature of the interaction, namely synergistic, antagonistic, or additive, between compounds. This was done using the computer software CalcuSyn, which is based on the combination index method. The method takes into account the concentration of compounds, the individual effect of each compound, as well as the effect of two compounds in combination. The values of the combination indices (CI) describe the nature of the interaction: Cl<0.9 indicates synergism, Cl>1.1 indicates antagonism, and Cl=0.9-1.1 indicates an additive effect. • c) To compare the resistance and selectivity profiles among SC, DOX, CON1, and CON2, human glioblastoma cell lines U87, U87-TxR, and MRC-5 were seeded at a density of 4,000 cells per well in 100 μL of the appropriate medium. In contrast, NCI-H460, NCI-H460/R, and MRC-5 were seeded at a density of 2,000 cells per well in 100 μL of the proper medium. The effect of SC derivatives LIG1 and LIG2 was also examined. The range of concentrations differed among the cell lines and the compounds. For LIG1 and LIG2, the range of concentrations for all cell lines was 50, 100, 200, 300, and 400 μM, while the same range was used for the MRC-5 in the case of SC, CON1, and CON2. DOX concentrations ranged 0.1, 0.25, 0.5, 1, and 2.5 μM for U87 and NCI-H460, and 0.25, 0.5, 1, 2.5, and 5 μM for U87-TxR, NCI-H460/R, and MRC-5. […] concentrations used for SC, CON1, and CON2 treatments varied in the range 1, 2.5, 5, 10, 25, 50, and 100 μM. The treatment lasted 72 h. After the treatment period, 0.2 mg/ml MTT in the appropriate cell culture medium was added to each well. […]

[2] = test system: NCI-H460 human non-small cell lung carcinoma cell line; details: for IC50: MTT, 72 h; for Selectivity Index: ratio IC50 MRC-5 (2,000 cells per well) / IC50 NCI-H460
Method: as §1, §2

[3] = test system: MRC-5 human lung fibroblast cell line
Method: as §1
(§3) The absorbance of the samples was measured at 570 nm using a Multiskan Sky Microplate spectrophotometer.
as §2, with “h.” for “h. After the treatment period, 0.2 mg/ml MTT in the appropriate cell culture medium was added to each well.”

[4] = test system: NCI-H460/R resistant human non-small cell lung carcinoma cell line; details: for IC50: MTT, 72 h, MDR line; for Relative Resistance: ratio IC50 NCI-H460/R / IC50 NCI-H460
Method: as §1, §3
as §2, with “h.” for “h. After the treatment period, 0.2 mg/ml MTT in the appropriate cell culture medium was added to each well.”

[5] = test system: U87-TxR resistant human glioblastoma cell line; details: for IC50: MTT, 72 h, MDR line; for Relative Resistance: ratio IC50 U87-TxR / IC50 U87
Method: as §1, §3
as §2, with “h.” for “h. After the treatment period, 0.2 mg/ml MTT in the appropriate cell culture medium was added to each well.”

[6] = Homo sapiens, NCI-H460, DOX only

Compound: N1-((25,3S,4S,6R)-3-hydroxy-2-methyl-6-(((1S,3S)-3,5,12-trihydroxy-3-(2-hydroxyacetyl)-10-methoxy-6,11-dioxo-1,2,3,4,6,11-hexahydrotetracen-1-yl)oxy)tetrahydro-2H-pyran-4-yl)-N4-(3-((4-((R,E)-3-hydroxy-5-((1R,2R,4aS,8aS)-2-hydroxy-2,5,5,8a-tetramethyldecahydronaphthalen-1-yl)-3-methylpent-1-en-1-yl)benzyl)amino)propyl) succinamide [CON1]
IC50 [1]: 8.8 µM | Selectivity Index [1]: 15.6 | IC50 [2]: 9.8 µM | Selectivity Index [2]: 7.4 | IC50 ([3]; 2,000 cells per well (non-small cell carcinoma experiments)): 72.6 µM | IC50 ([3]; 4,000 cells per well (glioblastoma experiments)): 137 µM | IC50 [4]: 38.4 µM | Relative Resistance [4]: 3.9 | IC50 [5]: 28.7 µM | Relative Resistance [5]: 3.3

IC50 ([1]; Homo sapiens, DOX only): 0.1 µM | IC50 [2, 6]: 0.128 µM | IC50 [4, 6]: 2.5 µM | IC50 ([5]; Homo sapiens, U87-TxR, DOX only): 1.32 µM
Compound: COc1cccc2c1C(=O)c1c(O)c3c(c(O)c1C2=O)C[C@@](O)(C(=O)CO)C[C@@H]3O[C@H]1C[C@H](N)[C@H](O)[C@H](C)O1 [DOX, doxorubicin]
Selectivity Index [1]: 2.9 | Selectivity Index [2]: 4.6 | IC50 ([3]; Homo sapiens, MRC5, 72 h, 2,000 cells per well (non-small cell carcinoma experiments), DOX only): 0.588 µM | IC50 ([3]; Homo sapiens, MRC5, 72 h, 4,000 cells per well (glioblastoma experiments), DOX only): 0.295 µM | Relative Resistance [4]: 19.6 | Relative Resistance [5]: 13.2

IC50 ([1]; Homo sapiens): 51.6 µM | IC50 ([2]; Homo sapiens, NCI-H460): 40.3 µM | IC50 ([4]; Homo sapiens, NCI-H460): 47.4 µM | IC50 ([5]; Homo sapiens, U87-TxR): 39.2 µM
Compound: C=C[C@](C)(O)CC[C@@H]1[C@@]2(C)CCCC(C)(C)[C@@H]2CC[C@@]1(C)O [SC, sclareol]
Selectivity Index [1]: 1.5 | Selectivity Index [2]: 1.6 | IC50 ([3]; Homo sapiens, MRC5, 72 h, 2,000 cells per well (non-small cell carcinoma experiments)): 64.1 µM | IC50 ([3]; Homo sapiens, MRC5, 72 h, 4,000 cells per well (glioblastoma experiments)): 75.9 µM | Relative Resistance [4]: 1.2 | Relative Resistance [5]: 0.8

— US20260174860A1, “HYBRID COMPOUNDS OF SCLAREOL AND DOXORUBICIN, THEIR SYNTHESIS AND APPLICATION” (INSTITUTE FOR BIOLOGICAL RESEARCH "SINISA STANKOVIC" - …, priority 2023, published 2026)
